Measurements: ChEMBL document CHEMBL3272250, “Quinoline derivatives as antiallergy agents. 2. Fused-ring quinaldic acids” (1977)

Species: Rattus norvegicus
Assay: Ratio of cromolyn sodium ID50 to compound ID50 for inhibition of passive cutaneous anaphylaxis reaction in Sprague-Dawley rat
Type: functional
Details: not given

Structure (SMILES) | Ratio
Cc1c2c(=O)cc(C(=O)[O-])[nH]c2c(Cl)c2[nH]c(C(=O)[O-])cc(=O)c12.[Na+].[Na+] | >250
O=C(O)c1cc(=O)c2ccc3c(ccc4c(=O)cc(C(=O)O)[nH]c43)c2[nH]1 | 500
CCCCc1cc2c(=O)cc(C(=O)O)[nH]c2c2c(=O)cc(C(=O)O)[nH]c12 [BUFROLIN] | 500

System: Rattus norvegicus
Assay: Antiallergic activity against anti-egg albumin homocytotropic antibody injected Sprague-Dawley rat assessed as inhibition of passive cutaneous anaphylaxis reaction administered iv at the time of egg albumin antigen challenge or ip 30 mins prior to egg albumin antigen challenge
Type: functional
Details: read-out: ID50 (the source's name)

Structure (SMILES) | ED50 [mg/kg]
O=C(O)c1cc(=O)c2cc3c(=O)cc(C(=O)O)[nH]c3c(Cl)c2[nH]1 | 0.05
O=C(O)c1cc(=O)c2c(ccc3[nH]c(C(=O)O)cc(=O)c32)[nH]1 | 2.5
Cc1c(C(=O)O)[nH]c2ccc3[nH]c(C(=O)O)c(C)c(=O)c3c2c1=O | 10
O=C(O)c1cc(=O)c2c(ccc3c(=O)cc(C(=O)O)[nH]c32)[nH]1 | 1
O=C(O)c1cc(=O)c2c(cc(C(=O)O)c3c(=O)cc(C(=O)O)[nH]c32)[nH]1 | 10
CCCCCc1cc2c(=O)cc(C(=O)O)[nH]c2c2c(=O)cc(C(=O)O)[nH]c12 | 0.05
Cc1c2[nH]c(C(=O)[O-])cc(=O)c2cc2c(=O)cc(C(=O)[O-])[nH]c12.[Na+].[Na+] | 0.25
N#Cc1c2[nH]c(C(=O)O)cc(=O)c2cc2c(=O)cc(C(=O)O)[nH]c12 | 0.05
O=C(O)c1cc(=O)c2cc3c(=O)cc(C(=O)O)[nH]c3c(F)c2[nH]1 | 0.5
COc1c2[nH]c(C(=O)O)cc(=O)c2cc2c(=O)cc(C(=O)O)[nH]c12 | 0.1
Cc1c2c(=O)cc(C(=O)[O-])[nH]c2c(Cl)c2[nH]c(C(=O)[O-])cc(=O)c12.[Na+].[Na+] | 0.01
O=C([O-])c1cc(=O)c2cc3c(=O)cc(C(=O)[O-])[nH]c3c(C(=O)O)c2[nH]1.[Na+].[Na+] | 0.1
Cc1c(C(=O)[O-])[nH]c2c(C)c3[nH]c(C(=O)O)c(C)c(=O)c3cc2c1=O.[Na+] | 5
O=C(O)c1cc(=O)c2c(C(F)(F)F)c3c(=O)cc(C(=O)O)[nH]c3c(Cl)c2[nH]1 | 5
O=C(O)c1cc(=O)c2c([nH]1)c1c(=O)cc(C(=O)O)[nH]c1c1c(=O)cc(C(=O)O)[nH]c21 | 0.5
O=C(O)c1cc(=O)c2ccc3c(ccc4c(=O)cc(C(=O)O)[nH]c43)c2[nH]1 | 0.005
O=C(O)c1cc(=O)c2cc(Cl)c3c(ccc4c(=O)cc(C(=O)O)[nH]c43)c2[nH]1 | 0.05
N#Cc1c2c(=O)cc(C(=O)O)[nH]c2c(Cl)c2[nH]c(C(=O)O)cc(=O)c12 | 0.05
CCCCc1cc2c(=O)cc(C(=O)O)[nH]c2c2c(=O)cc(C(=O)O)[nH]c12 [BUFROLIN] | 0.005
O=C([O-])c1cc(=O)c2c(OCC(O)COc3cccc4oc(C(=O)[O-])cc(=O)c34)cccc2o1.[Na+].[Na+] [CROMOLYN SODIUM] | 2.5
O=C(O)c1ccc2ccccc2n1 [QUINALDIC ACID] | 50
